The target of the experiment is T1, canine 5-HT2B receptor (Canis lupus familiaris, UniProt Q50DZ8).
T1 construct: expressed in transfected cells; host or cells: CHO-K1
The experiment is described as follows: Canine 5-HT2B (c5-HT2B) in-vitro assay (FLIPR calcium response, antagonist mode). Type of experiment: cell-based. Conditions: CHO-K1 cells stably expressing the canine 5-HT2B receptor; intracellular calcium response (FLIPR Calcium 5); inhibition of EC80 concentration of serotonin after 10 minute antagonist incubation; read-out: Compound Receptor IC50 Affinities for c5-HT2B. On the procedure: Canine 5-HT2B (c5-HT2B) In-Vitro Assay
CHO-K1 cells stably expressing the canine 5-HT2B receptor were seeded at 20,000 cells per well in 20 μl culture media (DMEM with GlutaMAX™ high glucose+5% dialyzed FBS+10 mM HEPES+1×MEM Non-Essential Amino Acids of a 384-well black plate with clear bottom for at least 18 hours at 37° C. and 5% CO2. The cell plate was loaded with 20 μl/well of the FLIPR© Calcium 5 Assay kit prepared in HBSS containing calcium and magnesium supplemented with 20 mM HEPES and 5 mM Probenecid at pH 7.4 and incubated at 37° C. and 5% CO2 for 30 minutes and then an additional 30 minutes at room temperature. The intracellular calcium response was measured using the FLIPR® Tetra instrument measuring the kinetic response of the calcium 5 dye at an excitation wavelength of 470-495 nm and emission wavelength of 515-575 nm at room temperature. The cells were initially challenged with a 5× concentration of the antagonist (10 μl/well) after an initial baseline recording and the calcium response was recorded for almost 2 minutes. After the completion of the initial antagonist challenge, the cell plate was incubated at room temperature in the FLIPR Tetra® instrument for 10 minutes. Finally, a second kinetic assay was performed after the 10 minute incubation at room temperature to measure the inhibitory response of the EC80 concentration of serotonin (15 μl/well) after an initial baseline recording. The IC50 concentration was determined for each antagonist tested.
In accordance with the in-vitro assay described above, the IC50 affinities for the c5-HT2B receptors for the compounds of the invention are provided in Table 1.

By IC50 is commonly meant the concentration at which inhibition is half-maximal.

T1 sequence (Q50DZ8 1-434): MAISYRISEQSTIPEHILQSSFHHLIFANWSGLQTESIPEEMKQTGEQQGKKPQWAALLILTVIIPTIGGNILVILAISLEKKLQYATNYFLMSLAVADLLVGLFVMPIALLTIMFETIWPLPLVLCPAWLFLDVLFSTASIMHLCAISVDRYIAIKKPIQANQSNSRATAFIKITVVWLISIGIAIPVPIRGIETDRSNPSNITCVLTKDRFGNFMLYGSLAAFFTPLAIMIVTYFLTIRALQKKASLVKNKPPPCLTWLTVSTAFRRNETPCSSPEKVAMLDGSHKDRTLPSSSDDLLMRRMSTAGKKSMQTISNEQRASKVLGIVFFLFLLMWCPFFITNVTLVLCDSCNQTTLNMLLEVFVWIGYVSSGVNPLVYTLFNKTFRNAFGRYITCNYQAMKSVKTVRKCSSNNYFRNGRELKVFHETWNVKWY

In the case of `Cn1ccnc1CN1[C@@H]2CC[C@H]1C[C@H](NC(=O)c1ccc3cc[nH]c3c1)C2` [Example 16, N-((1R,3s,5S)-8-((1-methyl-1H-imidazol-2-yl)methyl)-8-azabicyclo[3.2.1]octan-3-yl)-1H-indole-6-carboxamide], the IC50 turned out to be 8700 nM.
In the case of `O=C(N[C@@H]1C[C@H]2CC[C@@H](C1)N2Cc1ccc(Cl)cc1)c1ccc2cc[nH]c2c1` [Example 5, N-((1R,3s,5S)-8-(4-chlorobenzyl)-8-azabicyclo[3.2.1]octan-3-yl)-1H-indole-6-carboxamide], the IC50 stood at 0.27 nM.
Regarding `O=C(N[C@@H]1C[C@H]2CC[C@@H](C1)N2Cc1ccsn1)c1ccc2cc[nH]c2c1` [Example 26, N-((1R,3s,5S)-8-(isothiazol-3-ylmethyl)-8-azabicyclo[3.2.1]octan-3-yl)-1H-indole-6-carboxamide], the IC50 came out at 17.7 nM.
Regarding `O=C(N[C@@H]1C[C@H]2CC[C@@H](C1)N2Cc1ccccc1)c1ccc2ccn(-c3ccc(F)cc3)c2c1` [Example 22, N-((1R,3s,5S)-8-benzyl-8-azabicyclo[3.2.1]octan-3-yl)-1-(4-fluorophenyl)-1H-indole-6-carboxamide], the IC50 turned out to be 32 nM.
Consider `O=C(N[C@@H]1C[C@H]2CC[C@@H](C1)N2Cc1nccs1)c1ccc2cc[nH]c2c1` [Example 27, N-((1R,3s,5S)-8-(thiazol-2-ylmethyl)-8-azabicyclo[3.2.1]octan-3-yl)-1H-indole-6-carboxamide], for which the IC50 turned out to be 108 nM.
On to `O=C(N[C@@H]1C[C@H]2CC[C@@H](C1)N2Cc1ccccc1)c1ccc2cc[nH]c2c1` [Example 1, N-((1R,3s,5S)-8-benzyl-8-azabicyclo[3.2.1]octan-3-yl)-1H-indole-6-carboxamide], for which the IC50 came out at 0.41 nM.
For `O=C(N[C@@H]1C[C@H]2CC[C@@H](C1)N2Cc1ccccc1)c1ccc2ccn(-c3ccncc3)c2c1` [Example 18, N-((1R,3s,5S)-8-benzyl-8-azabicyclo[3.2.1]octan-3-yl)-1-(pyridin-4-yl)-1H-indole-6-carboxamide], the IC50 was determined as 538 nM.
With `O=C(N[C@@H]1C[C@H]2CC[C@@H](C1)N2Cc1ccns1)c1ccc2cc[nH]c2c1` [Example 25, N-((1R,3s,5S)-8-(isothiazol-5-ylmethyl)-8-azabicyclo[3.2.1]octan-3-yl)-1H-indole-6-carboxamide], the IC50 was found to be 1.4 nM.
Regarding `O=C(N[C@@H]1C[C@H]2CC[C@@H](C1)N2Cc1ccccn1)c1ccc2cc[nH]c2c1` [Example 12, N-((1R,3s,5S)-8-(pyridin-2-ylmethyl)-8-azabicyclo[3.2.1]octan-3-yl)-1H-indole-6-carboxamide], the IC50 stood at 54.3 nM.
With `O=C(N[C@@H]1C[C@H]2CC[C@@H](C1)N2Cc1ccccc1)c1ccc2c3c([nH]c2c1)CCCC3` [Example 9, N-((1R,3s,5S)-8-benzyl-8-azabicyclo[3.2.1]octan-3-yl)-2,3,4,9-tetrahydro-1H-carbazole-7-carboxamide], the IC50 stood at 112 nM.
As to `Cc1csc(CN2[C@@H]3CC[C@H]2C[C@H](NC(=O)c2ccc4cc[nH]c4c2)C3)n1` [Example 28, N-((1R,3s,5S)-8-((4-methylthiazol-2-yl)methyl)-8-azabicyclo[3.2.1]octan-3-yl)-1H-indole-6-carboxamide], the IC50 worked out at 200 nM.
Turning to `O=C(N[C@@H]1C[C@H]2CC[C@@H](C1)N2Cc1ccccc1)c1ccc2ccn(-c3ccccc3)c2c1` [Example 23, N-((1R,3s,5S)-8-benzyl-8-azabicyclo[3.2.1]octan-3-yl)-1-phenyl-1H-indole-6-carboxamide], the IC50 was determined as 57 nM.
The value for `O=C(N[C@@H]1C[C@H]2CC[C@@H](C1)N2Cc1ccc2[nH]ccc2c1)c1ccc2cc[nH]c2c1` [Example 6, N-((1R,3s,5S)-8-((1H-indol-5-yl)methyl)-8-azabicyclo[3.2.1]octan-3-yl)-1H-indole-6-carboxamide] was 0.31 nM; that for `O=C(N[C@@H]1C[C@H]2CC[C@@H](C1)N2c1ccccc1)c1ccc2cc[nH]c2c1` [Example 17, N-((1R,3s,5S)-8-phenyl-8-azabicyclo[3.2.1]octan-3-yl)-1H-indole-6-carboxamide] was 8280 nM.
`Cc1cc2ccc(C(=O)N[C@@H]3C[C@H]4CC[C@@H](C3)N4Cc3ccccc3)cc2[nH]1` [Example 8, N-((1R,3s,5S)-8-benzyl-8-azabicyclo[3.2.1]octan-3-yl)-2-methyl-1H-indole-6-carboxamide]: the IC50 is 4 nM.
For `O=C(N[C@@H]1C[C@H]2CC[C@@H](C1)N2Cc1ccccc1)c1ccc2ccn(-c3ccc(C(F)(F)F)cc3)c2c1` [Example 21, N-((1R,3s,5S)-8-benzyl-8-azabicyclo[3.2.1]octan-3-yl)-1-(4-(trifluoromethyl)phenyl)-1H-indole-6-carboxamide], the IC50 is 1100 nM.
In the case of `O=C(N[C@@H]1C[C@H]2CC[C@@H](C1)N2Cc1ccccc1)c1ccc2ccoc2c1` [Example 24, N-((1R,3s,5S)-8-benzyl-8-azabicyclo[3.2.1]octan-3-yl)benzofuran-6-carboxamide], the 50% inhibitory concentration (IC50) turned out to be 0.5 nM.
As to `N#Cc1c[nH]c2cc(C(=O)N[C@@H]3C[C@H]4CC[C@@H](C3)N4Cc3ccccc3)ccc12` [Example 19, N-((1R,3s,5S)-8-benzyl-8-azabicyclo[3.2.1]octan-3-yl)-3-cyano-1H-indole-6-carboxamide], the IC50 was determined as 144 nM.
For the compound `O=C(N[C@@H]1C[C@H]2CC[C@@H](C1)N2Cc1ccncc1)c1ccc2cc[nH]c2c1` [Example 14, N-((1R,3s,5S)-8-(pyridin-4-ylmethyl)-8-azabicyclo[3.2.1]octan-3-yl)-1H-indole-6-carboxamide], the IC50 stood at 2800 nM.
Consider `O=C(N[C@@H]1C[C@H]2CC[C@@H](C1)N2Cc1ccc(Cl)cc1)c1ccc2cc[nH]c2n1` [Example 3, N-((1R,3s,5S)-8-(4-chlorobenzyl)-8-azabicyclo[3.2.1]octan-3-yl)-1H-pyrrolo[2,3-b]pyridine-6-carboxamide], for which the IC50 was determined as 1.53 nM.
Take `O=C(N[C@@H]1C[C@H]2CC[C@@H](C1)N2Cc1cccs1)c1ccc2cc[nH]c2c1` [Example 7, N-((1R,3s,5S)-8-(thiophen-2-ylmethyl)-8-azabicyclo[3.2.1]octan-3-yl)-1H-indole-6-carboxamide]: the IC50 worked out at 1.3 nM.
Regarding `O=C(N[C@@H]1C[C@H]2CC[C@@H](C1)N2Cc1ccc(C(F)(F)F)cc1)c1ccc2cc[nH]c2c1` [Example 11, N-((1R,3s,5S)-8-(4-(trifluoromethyl)benzyl)-8-azabicyclo[3.2.1]octan-3-yl)-1H-indole-6-carboxamide], the IC50 came to 92.3 nM.
As to `O=C(N[C@@H]1C[C@H]2CC[C@@H](C1)N2Cc1cnccn1)c1ccc2cc[nH]c2c1` [Example 15, N-((1R,3s,5S)-8-(pyrazin-2-ylmethyl)-8-azabicyclo[3.2.1]octan-3-yl)-1H-indole-6-carboxamide], the IC50 was 3700 nM.
The value for `O=C(N[C@@H]1C[C@H]2CC[C@@H](C1)N2Cc1ccc(F)cc1)c1ccc2cc[nH]c2c1` [Example 4, N-((1R,3s,5S)-8-(4-fluorobenzyl)-8-azabicyclo[3.2.1]octan-3-yl)-1H-indole-6-carboxamide] was 0.12 nM; that for `O=C(N[C@@H]1C[C@H]2CC[C@@H](C1)N2Cc1cccnc1)c1ccc2cc[nH]c2c1` [Example 13, N-((1R,3s,5S)-8-(pyridin-3-ylmethyl)-8-azabicyclo[3.2.1]octan-3-yl)-1H-indole-6-carboxamide] was 663 nM; that for `O=C(N[C@@H]1C[C@H]2CC[C@@H](C1)N2Cc1ccccc1)c1ccc2cc(C(F)(F)F)[nH]c2c1` [Example 20, N-((1R,3s,5S)-8-benzyl-8-azabicyclo[3.2.1]octan-3-yl)-2-(trifluoromethyl)-1H-indole-6-carboxamide] was 21 nM.
As for `O=C(N[C@@H]1C[C@H]2CC[C@@H](C1)N2Cc1ccccc1)c1ccc2cn[nH]c2c1` [Example 10, N-((1R,3s,5S)-8-benzyl-8-azabicyclo[3.2.1]octan-3-yl)-1H-indazole-6-carboxamide], the IC50 amounted to 432 nM.
In the case of `O=C(N[C@@H]1C[C@H]2CC[C@@H](C1)N2Cc1ccccc1)c1ccc2cc[nH]c2n1` [Example 2, N-((1R,3s,5S)-8-benzyl-8-azabicyclo[3.2.1]octan-3-yl)-1H-pyrrolo[2,3-b]pyridine-6-carboxamide], the IC50 was found to be 0.15 nM.

The values above are taken from US12209084B2, “Serotonin 5-HT2B inhibitory compounds” (Zoetis Services LLC, priority 2021, dated 2025).
